# Measured values: US5504190A, “Equimolar multiple oligomer mixtures, especially oligopeptide mixtures” (priority 1994, dated 1996)
# Key:
# [1] = test system: Escherichia coli (ATCC 25922); assay: antimicrobial assay, growth inhibition of E. coli (OD 620 nm); format: cell-based; settings: Tables 1 and 2
# Procedure: (§1) Escherichia coli (ATCC 25922) was used as Gram-negative (-) and Staphylococcus aureus (ATCC 29213) as Gram-positive (+) bacteria. Bacteria were grown overnight (about 18 hours) at 37° C. in Mueller-Hinton (MH) broth. This culture was reinoculated and incubated at 37° C. to reach the exponential phase of bacteria growth; i.e., a final bacterial suspension containing about 10^5 to 5×10^5 colony-forming units (CFU)/ml. The concentration of cells was established by plating 100 μl of different dilutions of the culture solution (e.g., 10^-2, 10^-3 and 10^-4) onto solid agar plates. Following an overnight (about 18 hours) incubation at 37° C., the CFU thus formed were counted on each agar plate.
# (§2) 96-Well tissue culture plates were utilized, with eight wells per plate containing only medium as control blanks, whereas eight other wells contained medium plus cells as a positive growth control. These controls were used to detect possible medium contamination and to provide a measure of uninhibited growth of the microorganisms.
# (§3) For initial screening studies, oligopeptide sets were added to the bacterial suspension to reach a final concentration of 1 mg/ml.
# (§4) The plates were incubated overnight (about 18 hours) at 37° C., and the optical density (OD) determined at 620 nm after different times of incubation.
# [2] = test system: Staphylococcus aureus (ATCC 29213); assay: microbe, parasite or virus in culture
# Procedure: as §1, §2, §3, §4
# [3] = 7-mer studies, Tables 5 and 6 and parent 6-mer
Substance,IC-50 [1] [µg/mL],MIC [1] [µg/mL],other results
Ac-RRWWMG-NH2 [RRWWMG],9,10 to 16,–
Ac-RRWWMH-NH2 [RRWWMH],24,31 to 62,–
Ac-RRWWMI-NH2 [RRWWMI],12,16 to 32,–
Ac-RRWWMK-NH2 [RRWWMK],14,16 to 32,–
Ac-RRWWML-NH2 [RRWWML],15,16 to 32,–
Ac-RRWWMM-NH2 [RRWWMM],18,20 to 32,–
Ac-RRWWMN-NH2 [RRWWMN],25,31 to 62,–
Ac-RRWWMP-NH2 [RRWWMP],26,31 to 62,–
Ac-RRWWMR-NH2 [RRWWMR],9,10 to 16,–
Ac-RRWWMS-NH2 [RRWWMS],17,20 to 32,–
Ac-RRWWMT-NH2 [RRWWMT],18,20 to 32,–
Ac-RRWWMV-NH2 [RRWWMV],15,16 to 32,–
Ac-RRWWMW-NH2 [RRWWMW],15,16 to 32,–
Ac-RRWWMY-NH2 [RRWWMY],15,16 to 32,–
Ac-RRWWRA-NH2 [RRWWRA],–,–,IC-50 ([2]; Tables 3 and 4): 14 µg/mL; MIC ([2]; Tables 3 and 4): 18 to 36 µg/mL
Ac-RRWWRC-NH2 [RRWWRC],–,–,IC-50 ([2]; Tables 3 and 4): 8.2 µg/mL; MIC ([2]; Tables 3 and 4): 10 to 19 µg/mL
"Ac-RRWWRF-NH2 [RRWWRF, Ac-Arg-Arg-Trp-Trp-Arg-PheNH2]",–,–,"IC-50 [2, 3]: 8.7 µg/mL; MIC ([2]; ATCC 29213, 18 h): 8 to 16 µg/mL; IC-50 ([2]; Tables 3 and 4): 5.5 µg/mL; MIC ([2]; Tables 3 and 4): 6 to 9 µg/mL"
Ac-RRWWRFC-NH2 [RRWWRFC],–,–,"IC-50 [2, 3]: 6.2 µg/mL; MIC [2, 3]: 8 to 16 µg/mL"
Ac-RRWWRFI-NH2 [RRWWRFI],–,–,"IC-50 [2, 3]: 6.9 µg/mL; MIC [2, 3]: 8 to 16 µg/mL"
Ac-RRWWRFL-NH2 [RRWWRFL],–,–,"IC-50 [2, 3]: 5.9 µg/mL; MIC [2, 3]: 8 to 16 µg/mL"
Ac-RRWWRFV-NH2 [RRWWRFV],–,–,"IC-50 [2, 3]: 7.9 µg/mL; MIC [2, 3]: 8 to 16 µg/mL"
Ac-RRWWRFY-NH2 [RRWWRFY],–,–,"IC-50 [2, 3]: 7.6 µg/mL; MIC [2, 3]: 8 to 16 µg/mL"
Ac-RRWWRI-NH2 [RRWWRI],–,–,IC-50 ([2]; Tables 3 and 4): 12 µg/mL; MIC ([2]; Tables 3 and 4): 12 to 23 µg/mL
Ac-RRWWRL-NH2 [RRWWRL],–,–,IC-50 ([2]; Tables 3 and 4): 12 µg/mL; MIC ([2]; Tables 3 and 4): 13 to 26 µg/mL
Bacitracin A [reference compound],–,–,"MIC ([2]; Table 7, separate study): 16 µg/mL"
Gentamicin C [reference compound],–,–,"MIC ([2]; Table 7, separate study): 0.5 µg/mL"
Neomycin [reference compound],–,–,"MIC ([2]; Table 7, separate study): 1 µg/mL"
